Laboratory results as given in US7700277B2, “Use of polymorphisms in human OATP-C associated with an effect on statin pharmacokinetics in humans in statin therapy” (AstraZeneca AB, priority 2003, dated 2010).
Positions count from the first letter of the chain named.

Legend:
[1] = biological target: T1, OATP-C (Homo sapiens, UniProt Q9Y6L6); conditions: literature reports (Brown 2001, in vitro; Hsiang 1999); cited from earlier work
T1 sequence (Q9Y6L6 1-691): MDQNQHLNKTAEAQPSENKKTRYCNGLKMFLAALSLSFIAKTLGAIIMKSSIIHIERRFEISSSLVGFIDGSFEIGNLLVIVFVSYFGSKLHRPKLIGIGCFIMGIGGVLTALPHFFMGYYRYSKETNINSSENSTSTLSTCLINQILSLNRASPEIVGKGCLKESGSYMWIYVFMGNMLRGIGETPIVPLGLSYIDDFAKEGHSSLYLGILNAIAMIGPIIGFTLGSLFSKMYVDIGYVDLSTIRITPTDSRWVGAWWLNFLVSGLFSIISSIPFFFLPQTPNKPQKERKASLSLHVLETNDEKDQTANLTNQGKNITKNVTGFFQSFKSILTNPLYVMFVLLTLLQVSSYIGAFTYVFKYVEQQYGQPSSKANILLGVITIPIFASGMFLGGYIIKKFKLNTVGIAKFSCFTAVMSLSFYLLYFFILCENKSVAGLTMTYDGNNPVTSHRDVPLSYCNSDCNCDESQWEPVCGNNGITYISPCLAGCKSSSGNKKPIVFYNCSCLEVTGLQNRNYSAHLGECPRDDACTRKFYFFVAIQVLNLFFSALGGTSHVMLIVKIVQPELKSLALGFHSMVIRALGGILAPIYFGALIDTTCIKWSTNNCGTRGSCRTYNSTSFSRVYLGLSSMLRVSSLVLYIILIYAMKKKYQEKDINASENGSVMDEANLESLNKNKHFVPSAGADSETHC

[2] = tested on: OATP-C; assay: Dose-normalised plasma rosuvastatin concentrations by OATP-C genotype/haplotype in patients treated for 6 weeks; format: in vivo, human
Source text: In brief, the OATP-C gene was sequenced in 79 human clinical trial subjects. 52 of these patients had received rosuvastatin for at least 6 weeks for dislipidaemic disease and had plasma PK measurements taken after 6 weeks of treatment.
The promoter, exons and 3′ untranslated regions of OATP-C were fully sequenced by DNA terminator sequencing in DNA collected from 79 subjects in clinical trials. Sequencing traces were used to record the genotypes for known (i.e. available in the literature or SNP databases) SNPs in OATP-C. Some novel SNPs were found in the promoter and 3′UTR region of OATP-C.
Mean dose-normalised plasma rosuvastatin concentrations were determined for the genotypes for each polymorphic variant in the OATP-C gene. OATP-C genotype data for 3 SNPs, namely amino acid position 130 Asparagine→Aspartic acid (Asn130Asp), 155 Proline→Threonine (Pro 155Thr) and 174 Valine→Alanine (Val174Ala), was utilised to determine the haplotype pair for each subject. Mean dose-normalised plasma rosuvastatin concentrations were determined for the subjects grouped by haplotype pair.
All consenting subjects treated with rosuvastatin (n=271), from the 2 clinical trials including the original 52 patients, were subsequently genotyped, using TaqMan™, for OATP-C variants. Data for SNPs causing the N130D, P155T and V174A variants were utilised to assign OATPC haplotype pairs to each subject, as previously described.

[3] = biological target: T2, OATP-C (Homo sapiens, UniProt Q9Y6L6, N130D/V174A); conditions: Japanese healthy volunteers; Nishizato 2003; cited from earlier work
T2 construct: host or cells: human volunteers (in vivo)
T2 sequence (Q9Y6L6 1-691 N130D/V174A): T1 sequence (Q9Y6L6 1-691) with N130D, V174A

[4] = tested on: OATP-C; conditions: cohort of healthy volunteers; Niemi 2004; cited from earlier work

dose-normalised plasma rosuvastatin values, 174Ala variant vs wild type ([2]; FIG. 1, 52 subjects, Val174Ala heterozygote vs wild-type homozygote, after 6 weeks of treatment)	dose-normalised plasma rosuvastatin values, OATP-C*15 haplotype vs other haplotypes ([2]; FIG. 2, haplotype pairs, after 6 weeks of treatment)	mean plasma rosuvastatin levels (dose normalised), Val174Ala heterozygous vs Val/Val ([2]; FIG. 3, patients treated 6 weeks with different doses, most evident at higher doses)	mean plasma rosuvastatin concentrations, az0005537 (-118A>C) A/C heterozygous vs A/A ([2]; FIG. 4, two independent phase III studies)	effect of OATP-C variants N130D and P155T on pharmacokinetic disposition ([2]; patients, dose-normalised plasma levels)	Compound	substrate / transport by OATP-C [1]	mean plasma rosuvastatin concentrations, 174A variant with az0005537 C allele vs az0005537 A allele ([2]; FIG. 5, combined 2 phase III studies, V174A heterozygotes stratified by promoter genotype)	effect of OATPC*15 allele (N130D and V174A) on pharmacokinetics [3]	correlation between PK and a haplotype containing a promoter SNP [4]
higher plasma concentrations	higher plasma concentrations	higher	trend for an increase	do not appear to affect	CC(C)c1nc(N(C)S(C)(=O)=O)nc(-c2ccc(F)cc2)c1/C=C/[C@@H](O)C[C@@H](O)CC(=O)O [rosuvastatin]	substrate for OATP-C	tendency for higher mean plasma rosuvastatin concentrations	–	–
–	–	–	–	–	CC[C@H](C)C(=O)O[C@H]1C[C@H](O)C=C2C=C[C@H](C)[C@H](CC[C@@H](O)C[C@@H](O)CC(=O)O)[C@H]21 [pravastatin]	actively transported	–	had an effect	significant correlation
